These results are taken from patent publication US7517873B2, “Substituted pyrimidodiazepines” (Hoffman-La Roche Inc., priority 2007, dated 2009).

Each structure is given as a SMILES string.

This test deals with T1, GST-PLK1 (Homo sapiens, UniProt P53350).
T1 construct: Full-length, active GST-PLK1 is purified from Sf9 insect cells; made in house; host or cells: Sf9 insect cells
Kind of test: Biochemical Characterization Assay: GST-PLK1 kinase HTRF assay with GST-p53 substrate. The following applies: full-length GST-PLK1, GST-p53 and ATP, 37° C. for 35 minutes, HTRF signal. As for the experimental part: Biochemical Characterization Assay
Full-length, active GST-PLK1 is purified from Sf9 insect cells, and full-length GST-p53 is purified from E. coli. Anti-phospho p53 antibody is from Cell Signaling Technology. Europium-conjugated anti-rabbit antibody is from PerkinElmer Life and Analytical Sciences. APC-conjugated anti-GST antibody is from Prozyme.
To assay compounds of the invention, two microliters of test compound (0.6 nM-4 mM) in DMSO or plain DMSO for control wells, 38 microliters of 20 mM HEPES pH 7, 50 mM NaCl, 10 mM MgCl2, 0.5 mM TCEP, 0.1 mM sodium orthovanadate, 0.1 mg/mL BSA, and 0.05% Triton X-100 (Kinase Assay Buffer) are added. […] Six microliters of GST-PLK1 (3 ug/mL) in Kinase Assay Buffer are then added and the solution incubated at 37° C. for 35 minutes. Six microliters of solution containing 43 mM EDTA to stop the reaction and a 1:600 dilution of anti-phospho-p53 antibody in 20 mM HEPES pH 7, 50 mM NaCl, and 0.5 mg/mL BSA (Antibody Binding Buffer) are added and the solution incubated at 37° C. for 30 minutes. […] The HTRF signal is read on an Envision reader from PerkinElmer Life and Analytical Sciences.

T1 sequence (P53350 whole entry): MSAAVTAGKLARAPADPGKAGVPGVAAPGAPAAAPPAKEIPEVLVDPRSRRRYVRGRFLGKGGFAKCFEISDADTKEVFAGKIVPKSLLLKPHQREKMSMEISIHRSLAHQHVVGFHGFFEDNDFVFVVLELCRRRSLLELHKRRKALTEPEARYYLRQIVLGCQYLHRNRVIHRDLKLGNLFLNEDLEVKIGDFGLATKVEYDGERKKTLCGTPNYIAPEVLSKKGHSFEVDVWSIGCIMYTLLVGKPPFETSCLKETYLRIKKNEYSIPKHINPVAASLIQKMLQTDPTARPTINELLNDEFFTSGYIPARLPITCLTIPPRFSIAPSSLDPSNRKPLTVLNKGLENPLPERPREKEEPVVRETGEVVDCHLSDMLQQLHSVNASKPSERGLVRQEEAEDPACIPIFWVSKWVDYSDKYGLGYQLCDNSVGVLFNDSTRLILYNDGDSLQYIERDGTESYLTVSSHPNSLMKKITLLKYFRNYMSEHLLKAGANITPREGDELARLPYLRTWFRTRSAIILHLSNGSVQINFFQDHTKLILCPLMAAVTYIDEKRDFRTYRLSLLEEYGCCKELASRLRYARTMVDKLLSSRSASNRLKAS

What is called IC50 is the concentration at which inhibition is half-maximal. A higher IC50 goes with weaker potency in that assay. `CC1CN(C2CCCC2)c2nc(Nc3ccc(C(=O)NCCN(C)C)c(Cl)c3)ncc2N(C)C1=O` (racemic) [I-87, (rac)-2-Chloro-4-(9-cyclopentyl-5,7-dimethyl-6-oxo-6,7,8,9-tetrahydro-5H-pyrimido[4,5-b][1,4]diazepin-2-ylamino)-N-(2-dimethylamino-ethyl)-benzamide] came in with an IC50 of 500 to 5000 nM.

`CC1CN(C2CCCC2)c2nc(Nc3ccc(C(=O)NC4CCOCC4)c(Cl)c3)ncc2N(C)C1=O` (racemic) [I-88, (rac)-2-Chloro-4-(9-cyclopentyl-5,7-dimethyl-6-oxo-6,7,8,9-tetrahydro-5H-pyrimido[4,5-b][1,4]diazepin-2-ylamino)-N-(tetrahydro-pyran-4-yl)-benzamide] came in with an IC50 of 500 to 5000 nM.

Molecule `CCN1CCC(NC(=O)c2cccc(Nc3ncc4c(n3)N(C3CCCC3)CC(C)C(=O)N4C)c2)CC1` (racemic) [I-89, (rac)-3-(9-Cyclopentyl-5,7-dimethyl-6-oxo-6,7,8,9-tetrahydro-5H-pyrimido[4,5-b][1,4]diazepin-2-ylamino)-N-(1-ethyl-piperidin-4-yl)-benzamide] showed a 50% inhibitory concentration (IC50) of 500 to 5000 nM.

Molecule `COCCCNC(=O)c1cccc(Nc2ncc3c(n2)N(C2CCCC2)CC(C)C(=O)N3C)c1` (racemic) [I-90, (rac)-3-(9-Cyclopentyl-5,7-dimethyl-6-oxo-6,7,8,9-tetrahydro-5H-pyrimido[4,5-b][1,4]diazepin-2-ylamino)-N-(3-methoxy-propyl)-benzamide] registered an IC50 of 500 to 5000 nM.

`CC1CN(C2CCCC2)c2nc(Nc3cccc(C(=O)NC4CCCCC4)c3)ncc2N(C)C1=O` (racemic) [I-91, (rac)-N-Cyclohexyl-3-(9-cyclopentyl-5,7-dimethyl-6-oxo-6,7,8,9-tetrahydro-5H-pyrimido[4,5-b][1,4]diazepin-2-ylamino)-benzamide] had an IC50 above 5000 nM.

`CC1CN(C2CCCC2)c2nc(Nc3cccc(C(=O)Nc4ccncc4)c3)ncc2N(C)C1=O` (racemic) [I-92, (rac)-3-(9-Cyclopentyl-5,7-dimethyl-6-oxo-6,7,8,9-tetrahydro-5H-pyrimido[4,5-b][1,4]diazepin-2-ylamino)-N-pyridin-4-yl-benzamide] registered a concentration for half-maximal inhibition (IC50) above 5000 nM.

`CC1CN(C2CCCC2)c2nc(Nc3cccc(C(=O)NCCN(C)C)c3)ncc2N(C)C1=O` (racemic) [I-93, (rac)-3-(9-Cyclopentyl-5,7-dimethyl-6-oxo-6,7,8,9-tetrahydro-5H-pyrimido[4,5-b][1,4]diazepin-2-ylamino)-N-(2-dimethylamino-ethyl)-benzamide] yielded an IC50 of 500 to 5000 nM.

In the case of `COc1cc(C(=O)NC2CCN(C)CC2)ccc1Nc1ncc2c(n1)N(C1CCCC1)C[C@@H](C)C(=O)N2C` [I-2a, 7R-4-(9-Cyclopentyl-5,7-dimethyl-6-oxo-6,7,8,9-tetrahydro-5H-pyrimido[4,5-b][1,4]diazepin-2-ylamino)-3-methoxy-N-(1-methyl-piperidin-4-yl)-benzamide], the half-inhibitory concentration (IC50) was below 500 nM.

The molecule `COc1cc(C(=O)NC2CCN(C)CC2)ccc1Nc1ncc2c(n1)N(C1CCCC1)C[C@H](C)C(=O)N2C` [I-2b, 7S-4-(9-cyclopentyl-5,7-dimethyl-6-oxo-6,7,8,9-tetrahydro-5H-pyrimido[4,5-b][1,4]diazepin-2-ylamino)-3-methoxy-N-(1-methyl-piperidin-4-yl)-benzamide] registered an IC50 below 500 nM.

In turn, `COc1cc(C(=O)NC2CCN(C)CC2)ccc1Nc1ncc2c(n1)N(C1CCCC1)CCC(=O)N2` [I-21, 4-(9-Cyclopentyl-6-oxo-6,7,8,9-tetrahydro-5H-pyrimido[4,5-b][1,4]diazepin-2-ylamino)-3-methoxy-N-(1-methyl-piperidin-4-yl)-benzamide] gave an IC50 of 500 to 5000 nM.

Molecule `COc1cc(C(=O)NC2CCN(C)CC2)ccc1Nc1ncc2c(n1)N(Cc1ccccc1)CCC(=O)N2C` [I-22, 4-(9-Benzyl-5-methyl-6-oxo-6,7,8,9-tetrahydro-5H-pyrimido[4,5-b][1,4]diazepin-2-ylamino)-3-methoxy-N-(1-methyl-piperidin-4-yl)-benzamide] showed a concentration for half-maximal inhibition (IC50) of 500 to 5000 nM.
